{"source": "patent US20040086942A1", "about": "“Ige receptor antagonists” (priority 2003, published 2004)", "note": "Where a SMILES comes first, the peptide text is derived from it. Bridges are numbered along the chain shown (N, C = ends). [ ]: non-standard residue; d: D form. 2Nal = N[C@@H](Cc1ccc2ccccc2c1)C(=O)O; Pip = O=C(O)[C@@H]1CCCCN1; Sar = CNCC(=O)O"}
{"target": "T1, alpha subunit of the human FcεRI receptor (Homo sapiens, UniProt P12319)", "T1 construct": "expressed in transfected cells; host or cells: Chinese hamster ovary (CHO FcεRI+) cells", "T1 sequence (P12319 26-257)": "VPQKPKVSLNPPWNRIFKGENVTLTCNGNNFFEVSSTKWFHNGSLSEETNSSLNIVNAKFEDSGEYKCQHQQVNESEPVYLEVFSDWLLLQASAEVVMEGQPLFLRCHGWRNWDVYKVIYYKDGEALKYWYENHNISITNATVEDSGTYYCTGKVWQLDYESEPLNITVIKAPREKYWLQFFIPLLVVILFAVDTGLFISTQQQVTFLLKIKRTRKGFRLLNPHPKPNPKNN", "assay": "cell-based 125I-IgE binding inhibition assay on CHO FcεRI+ cells", "details": "comparator (parent/control peptide) as named in the sentence", "experimental": "(§1) . The following day the cells were rinsed three times with PBS and then once with F12/DMEM. Peptide stocks were reconstituted in 100 mM Hepes buffered water, pH 7.2, at a concentration of 5 mg/mL. Working concentrations of the peptide were diluted in assay buffer (see below). 75 ul, of a desired concentration of peptide was added to the top row of a separate 96 well microtiter plate and serially diluted 1:3 in 50 uL of the assay buffer (F12/DMEM, 1% BSA, 0.05% NaN3 and […] Hepes pH 7.2). Starting concentrations ranged from 50-500 uM. Next, 50 uL of the diluted peptide was transferred to the 96 microtiter well plate containing a monolayer of CHO FcεRI+ cells. After a 1 hour incubation at room temperature, 50 uL of ^125I-IgE (1.5 nM) was added to each well and incubated for an additional 45-60 minutes at 4° C. followed by 5 washes with 200 uL of assay buffer. Cells were solubilized with 200 uL of 1 N NaOH and transferred to a 96 microtiter tube for counting in a gamma counter to determine counts bound. The data were plotted using KaleidaGraph 3.0 and fitted using 4-parameter fits. IC50 values were determined for each peptide.\n(§2) Six peptides based on selected clones from library #516 were synthesized and assayed for the ability to inhibit the binding of ^125I-IgE to a Chinese hamster ovary cell line expressing the alpha subunit of the IgE high affinity receptor, FcεRI. The peptides were synthesized as nine residue monomers and oxidized to allow the formation of a disulfide bridge resulting in a cyclic peptide. The size of each peptide was confirmed by mass spectrometry."}
{"smiles": "CC(C)C[C@@H]1NC(=O)[C@H](CCC(=O)O)NC(=O)[C@H](C)NC(=O)CNC(=O)CNC(=O)[C@H](Cc2ccccc2)NC(=O)[C@H](Cc2ccc(O)cc2)NC(=O)[C@@H]2CSSC[C@H](NC1=O)C(=O)N1CCC[C@H]1C(=O)N[C@@H](CC(=O)O)C(=O)N[C@@H](C(C)C)C(=O)N[C@H](C(=O)N[C@@H](Cc1ccc(O)cc1)C(=O)N[C@H](C(N)=O)C(C)C)CSSC[C@H](NC(=O)[C@H](CCC(N)=O)NC(=O)[C@@H](N)C(C)C)C(=O)N1CCCC[C@H]1C(=O)N[C@@H](Cc1c[nH]cn1)C(=O)N[C@@H](Cc1ccccc1)C(=O)N2", "note": "[IGE162-2, VQC(Pip)HFCYFGGAELCPDVCYV-nh2] (H-VQC[Pip]HFCYFGGAELCPDVCYV-NH2; disulfide 3-19, 7-15)", "fold difference in activity relative to comparator peptide": "little change in activity"}
{"target": "T1, alpha subunit of the human FcεRI receptor", "assay": "cell-based 125I-IgE binding inhibition assay on CHO FcεRI+ cells", "details": "inhibition of labeled IgE-binding to CHO FcεRI+ cells; read-out: Mean IC50(uM) ± S.D.", "experimental": "as §1, §2", "units": {"IC50": "µM"}}
{"smiles": "CC[C@H](C)[C@H](NC(=O)[C@@H]1CSSC[C@H](NC(C)=O)C(=O)N[C@@H]([C@@H](C)O)C(=O)N[C@@H](CCC(=O)O)C(=O)NCC(=O)N2CCC[C@H]2C(=O)N[C@@H](Cc2c[nH]c3ccccc23)C(=O)NCC(=O)N[C@@H](Cc2c[nH]c3ccccc23)C(=O)N[C@@H](C(C)C)C(=O)N1)C(N)=O", "note": "[IGE056, Ac-CTEGPWGWVCI-nh2] (Ac-CTEGPWGWVCI-NH2; disulfide 1-10)", "IC50": "> 500"}
{"smiles": "CSCC[C@H](NC(=O)[C@@H]1CSSC[C@H](NC(=O)[C@H](CCCNC(=N)N)NC(=O)[C@@H]2CCCN2C(=O)[C@H](CC(C)C)NC(=O)[C@H](CC(N)=O)NC(C)=O)C(=O)N[C@@H]([C@@H](C)O)C(=O)N[C@@H](CCC(=O)O)C(=O)NCC(=O)N2CCC[C@H]2C(=O)N[C@@H](Cc2c[nH]c3ccccc23)C(=O)NCC(=O)N[C@@H](Cc2c[nH]c3ccccc23)C(=O)N[C@@H](C(C)C)C(=O)N1)C(N)=O", "note": "[IGE058, Ac-NLPRCTEGPWGWVCM-nh2] (Ac-NLPRCTEGPWGWVCM-NH2; disulfide 5-14)", "IC50": "1.8 ± 1.3"}
{"smiles": "CC[C@H](C)[C@H](NC(=O)[C@@H]1CSSC[C@H](N)C(=O)N[C@@H]([C@@H](C)O)C(=O)N[C@@H](CCC(=O)O)C(=O)NCC(=O)N2CCC[C@H]2C(=O)N[C@@H](Cc2c[nH]c3ccccc23)C(=O)NCC(=O)N[C@@H](Cc2c[nH]c3ccccc23)C(=O)N[C@@H](C(C)C)C(=O)N1)C(N)=O", "note": "[IGE055, CTEGPWGWVCI-nh2] (H-CTEGPWGWVCI-NH2; disulfide 1-10)", "IC50": "> 500"}
{"test_system": "not listed separately", "assay": "2D NMR structural score versus reference peptide", "type": "physicochemical", "design": "key to Struct. Score: +++ indicates the peptide is structured similarly to IGE063 (SEQ ID NO:49); + indicates the peptide is structured similarly to IGE063 (SEQ ID NO:49), but is less stable; −/+ indicates the peptide has some elements of stable structure, but the conformation differs from the reference structure (e.g., a different turn type is evident); − indicates the peptide is predominantly unstructured in aqueous solution", "details": "reference IGE063", "experimental": "Peptides were evaluated by 2D NMR spectroscopy to assess the effect of substitutions on the three-dimensional structure of the peptide analog. All peptides with a structural score indicated in Table 5 were analyzed by 2D NMR spectroscopy; backbone ^1H resonances were assigned and ^3JHN-Hα coupling constants were measured and compared to the reference peptide (IGE063, SEQ ID NO:49; see Example 5). Peptides are defined to be of similar structure to the reference peptide provided chemical shifts, coupling constants, and NOEs are consistent with that structure.\nA structural score was assigned to peptides analyzed by 2D NMR spectroscopy. For each of these peptides, backbone ^1H resonances have been assigned, and the ^3JHN-Ha coupling constants have been measured and compared to the reference peptide (i.e., IGE134 (SEQ ID NOS:155, 171)). Peptides are defined to be of similar structure to the reference peptide provided. chemical shifts, coupling constants, and NOEs are consistent with that structure."}
{"smiles": "CSCC[C@H](NC(=O)[C@@H]1CSSC[C@H](NC(=O)[C@H](CCCNC(=N)N)NC(=O)[C@@H]2CCCN2C(=O)[C@H](CC(C)C)NC(=O)[C@H](CC(N)=O)NC(C)=O)C(=O)N[C@@H]([C@@H](C)O)C(=O)N[C@@H](CCC(=O)O)C(=O)NCC(=O)N(C)CC(=O)N[C@@H](Cc2c[nH]c3ccccc23)C(=O)NCC(=O)N[C@@H](Cc2c[nH]c3ccccc23)C(=O)N[C@@H](C(C)C)C(=O)N1)C(=O)O", "note": "[IGE097, Ac-NLPRCTEG(N-Me-G)WGWVCM] (Ac-NLPRCTEG[Sar]WGWVCM-OH; disulfide 5-14; C-terminus assumed)", "Struct. Score": "−/+"}
{"smiles": "CSCC[C@H](NC(=O)[C@@H]1CSSC[C@H](NC(=O)[C@@H]2CCCN2C(=O)[C@H](CC(C)C)NC(=O)[C@H](CC(N)=O)NC(C)=O)C(=O)N[C@@H]([C@@H](C)O)C(=O)N[C@@H](CCC(=O)O)C(=O)NCC(=O)N2CCC[C@H]2C(=O)N[C@@H](Cc2c[nH]c3ccccc23)C(=O)NCC(=O)N[C@@H](Cc2c[nH]c3ccccc23)C(=O)N[C@@H](C(C)C)C(=O)N1)C(=O)O", "note": "[IGE107, Ac-NLPCTEGPWGWVCM] (Ac-NLPCTEGPWGWVCM-OH; disulfide 4-13)", "Struct. Score": "+"}
{"smiles": "CSCC[C@H](NC(=O)[C@@H]1CSSC[C@H](NC(=O)[C@H](CCCNC(=N)N)NC(=O)[C@@H]2CCCN2C(=O)[C@H](CC(C)C)NC(=O)[C@H](CC(N)=O)NC(C)=O)C(=O)N[C@@H]([C@@H](C)O)C(=O)N[C@@H](CCC(=O)O)C(=O)NCC(=O)N2CCC[C@H]2C(=O)N[C@@H](Cc2c[nH]c3ccccc23)C(=O)NCC(=O)N[C@@H](CC(C)C)C(=O)N[C@@H](C(C)C)C(=O)N1)C(=O)O", "note": "[IGE109, Ac-NLPRCTEGPWGLVCM] (Ac-NLPRCTEGPWGLVCM-OH; disulfide 5-14; C-terminus assumed)", "Struct. Score": "+++"}
{"smiles": "CSCC[C@H](NC(=O)[C@@H]1CSSC[C@H](NC(=O)[C@H](CCCNC(=N)N)NC(=O)[C@@H]2CCCN2C(=O)[C@H](CC(C)C)NC(=O)[C@H](CC(N)=O)NC(C)=O)C(=O)N[C@@H]([C@@H](C)O)C(=O)N[C@@H](CCC(=O)O)C(=O)NCC(=O)N2CCC[C@H]2C(=O)N[C@@H](Cc2ccc3ccccc3c2)C(=O)NCC(=O)N[C@@H](Cc2c[nH]c3ccccc23)C(=O)N[C@@H](C(C)C)C(=O)N1)C(=O)O", "note": "[IGE103, Ac-NLPRCTEGP(npA)GWVCM] (Ac-NLPRCTEGP[2Nal]GWVCM-OH; disulfide 5-14; C-terminus assumed)", "Struct. Score": "+++"}
{"smiles": "CSCC[C@H](NC(=O)[C@@H]1CSSC[C@H](NC(=O)[C@H](CCCNC(=N)N)NC(=O)[C@@H]2CCCN2C(=O)[C@H](CC(C)C)NC(=O)[C@H](CC(N)=O)NC(C)=O)C(=O)N[C@@H]([C@@H](C)O)C(=O)N[C@@H](CCC(=O)O)C(=O)NCC(=O)N2CCC[C@H]2C(=O)N[C@@H](C(C)C)C(=O)NCC(=O)N[C@@H](Cc2c[nH]c3ccccc23)C(=O)N[C@@H](C(C)C)C(=O)N1)C(=O)O", "note": "[IGE106, Ac-NLPRCTEGPVGWVCM] (Ac-NLPRCTEGPVGWVCM-OH; disulfide 5-14; C-terminus assumed)", "Struct. Score": "+++"}
{"smiles": "CSCC[C@H](NC(=O)[C@@H]1CSSC[C@H](NC(=O)[C@H](CCCNC(=N)N)NC(=O)[C@@H]2CCCN2C(=O)[C@H](CC(C)C)NC(=O)[C@@H](N)CC(N)=O)C(=O)N[C@@H]([C@@H](C)O)C(=O)N[C@@H](CCC(=O)O)C(=O)NCC(=O)N2CCC[C@H]2C(=O)N[C@@H](Cc2c[nH]c3ccccc23)C(=O)NCC(=O)N[C@@H](Cc2c[nH]c3ccccc23)C(=O)N[C@@H](Cc2ccc(O)cc2)C(=O)N1)C(=O)O", "note": "[IGE077, NLPRCTEGPWGWYCM] (H-NLPRCTEGPWGWYCM-OH; disulfide 5-14; N-terminus and C-terminus assumed)", "Struct. Score": "+++"}
{"smiles": "CSCC[C@H](NC(=O)[C@@H]1CSSC[C@H](NC(=O)[C@H](CCCNC(=N)N)NC(=O)[C@@H]2CCCN2C(=O)[C@H](CC(C)C)NC(=O)[C@H](CC(N)=O)NC(C)=O)C(=O)N[C@@H]([C@@H](C)O)C(=O)N[C@@H](CCC(=O)O)C(=O)NCC(=O)N2CCCC[C@H]2C(=O)N[C@@H](Cc2c[nH]c3ccccc23)C(=O)NCC(=O)N[C@@H](Cc2c[nH]c3ccccc23)C(=O)N[C@@H](C(C)C)C(=O)N1)C(=O)O", "note": "[IGE095, Ac-NLPRCTEG(Pip)WGWVCM] (Ac-NLPRCTEG[Pip]WGWVCM-OH; disulfide 5-14; C-terminus assumed)", "Struct. Score": "+++"}
{"smiles": "CSCC[C@H](NC(=O)[C@H]1CSSC[C@H](NC(=O)[C@H](CCCNC(=N)N)NC(=O)[C@@H]2CCCN2C(=O)[C@H](CC(C)C)NC(=O)[C@H](CC(N)=O)NC(C)=O)C(=O)N[C@@H]([C@@H](C)O)C(=O)N[C@@H](CCC(=O)O)C(=O)NCC(=O)N2CCC[C@H]2C(=O)N[C@@H](Cc2c[nH]c3ccccc23)C(=O)NCC(=O)N[C@@H](Cc2c[nH]c3ccccc23)C(=O)N[C@@H](C(C)C)C(=O)N1)C(=O)O", "note": "[IGE104, Ac-NLPRCTEGPWGWVcM] (Ac-NLPRCTEGPWGWV[dC]M-OH; disulfide 5-14; C-terminus assumed)", "Struct. Score": "−"}
